{"source": "paper PMC9229894", "about": "“In Silico, In Vitro, and Pharmacokinetic Studies of UBMC-4, a Potential Novel Compound for Treating against Trypanosoma cruzi” (Pathogens, 2022)", "key": {"[1]": {"tested_on": "T. cruzi Tulahuen strain amastigotes", "experiment": "Trypanocidal activity in intracellular amastigotes (β-galactosidase, U937 macrophages)", "format": "cell-based, Trypanosoma cruzi", "conditions": "Trypanosoma cruzi", "protocol": "To obtain intracellular amastigotes, 2.5 × 10^6 U937 differentiated macrophage cells were infected with T. cruzi epimastigotes (Tulahuen strain producing β-galactosidase, 24 h of growing) in a 5:1 parasite/cell ratio. To calculate EC50, 100 μL of UBMC-4 were added at four serial dilutions ([…]) to each well, and benznidazole (bz) was added at an initial concentration of 20 µg/mL and 6 serial 2-fold dilutions were used to determine its EC50 as a control of the effectiveness of the experiment, in addition to the control of the viability of the parasites (cells without drug treatment), from the blank of the culture medium (medium without cells), in duplicate. The cells were incubated for 72 h at 37 °C with 5% of CO2. All medium was removed and 100 µL of substrate for β-galactosidase diluted in PBS (chlorophenol β-d-galactopyranoside-CPRG network; Sigma-Aldrich, St Louis, MO, USA, at 100 mM and 0.1% Nonidet P-40) was added to each well and incubated at 37 °C for 3 h. The amount of chlorophenol red released was read at 570 nm in a spectrophotometer (Varioskan TM). Infected cells were used as negative control while infected cells treated with benznidazole were used as a positive control (trypanocidal activity) for the assay. RPMI-1640 medium was used as a negative control. Non-specific absorbance was corrected by subtracting the OD of the blank sample. Determinations were done in triplicate in at least two independent experiments.\nThe trypanocidal activity was determined based on the percentage of decrease of amastigotes determined using equation, as follows: % reduction of infection = 100 − (O.D. of treated infected cells)/(O.D. of non-treated infected cells) × 100. The half maximal effective concentration (EC50) was calculated by the linear regression model Probit using Graphpad Prism software."}, "[2]": {"experiment": "Cytotoxicity, MTT method, HepG2", "format": "cell-based", "conditions": "human, HepG2 cells, read-out: LC50 median lethal concentration HepG2", "protocol": "(§1) Cytotoxicity of UBMC-4 was tested in HepG2, CaCo2, and huMDM cell lines according to the effect on cell growth determined by the MTT microenzimatic method, as described by others. Briefly, 2.0 × 10^4 U-937 and huMDM or 2.5 × 10^4 HepG2 and CaCo2 cells were dispensed in 200 µL into each well of a 96-well tissue culture plate containing the corresponding culture medium. Then, 100 µL/well of each compound at a concentration of […] were added and plates were incubated at 37 °C, 5% CO2. After 72 h of incubation, 20 μL of MTT (Sigma-Aldrich, St Louis, MO, USA) were added to each well and plates were incubated for 3 h at 37 °C, 5% CO2. […] The concentration of formazan was determined at 570 nm in a spectrophotometer (Varioskan Flash Multimode Reader, Thermo Scientific, Waltham, MA, USA). […] Cytotoxicity was determined according to the percentages of viability and cell growth inhibition obtained for each compound, bz, doxorubicin, or medium alone. Non-specific absorbance was corrected by subtracting the OD of the blank (culture medium). Percentages of mortality were calculated using equation, as follows: % mortality = 100 − [(O.D. of treated cells)/(O.D. of non-treated cells)] × 100. The half maximal effective concentration (EC50) was calculated by the linear regression model Probit using Graphpad Prism software."}, "[3]": {"experiment": "Cytotoxicity, MTT method, CaCo2", "format": "cell-based", "conditions": "human, Caco-2, read-out: LC50 median lethal concentration CaCo2", "protocol": "as §1"}, "[4]": {"experiment": "Cytotoxicity, MTT method, huMDM", "format": "cell-based", "conditions": "human, monocyte-derived macrophages (huMDM), read-out: LC50 median lethal concentration huMDM", "protocol": "as §1"}, "[5]": {"tested_on": "T. cruzi epimastigotes", "experiment": "Flow cytometry of apoptosis-like markers in epimastigotes (Hoechst, DiOC6, PI)", "format": "cell-based, Trypanosoma cruzi", "conditions": "10 µM, 24 h", "protocol": "Apoptosis-like markers were analyzed by triple staining using 3,3′-dihexyloxacarbocyanine (DiOC6), propidium iodide (PI), and Hoechst from Thermo Fisher Scientific to determine the change of mitochondrial membrane potential (ΔΨm), cell membrane damage, and impairment of cell cycle, respectively. All readings were performed on a BD FACSCanto II 4/2/2 Sys IVD flow cytometer, and data obtained were analyzed using the FlowJo7.6.2 software. Differences between treatments were determined by a two-way ANOVA for multiple comparisons with 95% significance using GraphPad Prism 8. In all cases, 20 µL of parasites (5 × 10^6/mL) were stained per treatment with 300 µL of Hanks’ balanced saline solution (HBSS) and 10 µL of the staining mix containing […], 0.5 µL of 70 nM DiOC6, and 0.5 µL of 10 mg/mL Hoechst. Subsequently, parasites were incubated at room temperature for 15 min until reading.\nT. cruzi epimastigotes in exponential growth phase were used to submit the parasites to a treatment under nutritional stress and further challenging the culture with the inhibitor UBMC-4 and the control drug bz. Nutritional stress was induced by starving the parasites in PBS. Parasites were grown either in complete RPMI medium or PBS (with and without 10 µM UBMC-4) for 24 h at 28 °C. Three independent biological replicates were analyzed per treatment. The experiments were performed in 24-well plates at an initial concentration of 1 × 10^7 total parasites in 2 mL/well. Parasites were centrifuged at 1800 RCF for 5 min, washed once with PBS buffer, and then resuspended in a final volume of 2 mL for further labeling and flow cytometry."}, "[6]": {"experiment": "Toxicity / tolerability in mice", "format": "in vivo"}, "[7]": {"experiment": "Solubility remark", "format": "physicochemical"}}, "note": "Like-named read-outs stand apart in the source and are kept apart here.", "data": [{"molecule": "Oc1ccc(-c2nc(-c3ccc4sc5ccccc5c4c3)c(-c3ccccc3)[nH]2)cc1", "note": "[UBMC-4, 4-(4-dibenzo-[b,d]-thien-2-yl-5-phenyl-1H-imidazol-2-yl)phenol]", "values": [{"measurement": "EC50", "setting": "[1]; TULAHUEN, U-937, 72 h, read-out: EC50 half maximal effective concentration for T. cruzi amastigotes", "value": "1.85 ± 1", "unit": "µM"}, {"measurement": "EC50", "setting": "[1]; U-937, intracellular amastigotes, Tulahuen strain, same value in mass units, read-out: EC50 for T. cruzi amastigotes", "value": 0.774, "unit": "µg/mL"}, {"measurement": "CC50 at 72 h", "setting": "[2]", "value": "> 40", "unit": "µM"}, {"measurement": "CC50 at 72 h", "setting": "[3]", "value": "> 40", "unit": "µM"}, {"measurement": "CC50 at 72 h", "setting": "[4]", "value": "> 40", "unit": "µM"}, {"measurement": "changes in apoptosis-like markers", "setting": "[5]; normal culture conditions", "value": "no changes in apoptosis-like markers"}, {"measurement": "DNA fragmentation (hypodiploid, Sub G0/G1), % of population", "setting": "[5]; nutritional stress", "value": "up to 39.4%"}, {"measurement": "cell membrane damage (PI), % of population", "setting": "[5]; nutritional stress", "value": 38.4, "unit": "%"}, {"measurement": "mitochondrial depolarization (DiOC6), % of population", "setting": "[5]; nutritional stress", "value": 99.9, "unit": "%"}, {"measurement": "tolerability in preliminary toxicity study", "setting": "[6]; 200 mg/kg administered once and 100 mg/kg every 24 h for 30 days", "value": "significant tolerability"}, {"measurement": "acute toxicity", "setting": "[6]; mice of the pharmacokinetic assay, 200 mg/kg oral single dose", "value": "did not exhibit acute toxicity"}, {"measurement": "death of mice", "setting": "[6]; mouse, in vivo, po, 200 mg/kg", "value": "did not cause death to any of the mice"}, {"measurement": "solubility", "setting": "[7]", "value": "slight solubility problems"}]}]}
